Results reported in publication PMC4868737, “BAY 1024767 blocks androgen receptor mutants found in castration-resistant prostate cancer patients” (Oncotarget, 2016).
Residue numbers refer to the chain shown, from its start.

How the values were obtained:
Caco-2 permeation assay = assay type: in vitro ADME; details: human
Method: Caco-2 cells were seeded on 24-well insert plates, 0.4 μm pore size, and grown for 15 days. The test compound was dissolved in DMSO and added either to the apical (A) or basolateral (B) compartment at a final concentration of 2 μM. Before and after 2 h incubation, samples were taken from both compartments and analyzed by LC/MS/MS. The apparent permeability (Papp) was determined for each direction and the efflux ratio was calculated as Papp B-A/Papp A-B.

[1] = In vivo pharmacokinetics in male NMRI mice; details: mouse, plasma
Method: BAY 1024767 was administered to 6-7 week-old male NMRI mice in the tail vein by a single dose of 0.5 mg/kg and intragastral by a single dose of 1 mg/kg formulated in PEG400/water (60/40). Three mice were sacrificed at different time points after dosing, and blood (for heparinized plasma) was sampled from the vena cava. Analysis of the samples was performed by LC/MS/MS and pharmacokinetic parameters were calculated by non-compartmental analysis.

AR wild-type = target: T1, AR wild-type (Homo sapiens, UniProt P10275); assay: cell-based; details: IC50 (antagonistic activity)
T1 sequence (P10275 1-920): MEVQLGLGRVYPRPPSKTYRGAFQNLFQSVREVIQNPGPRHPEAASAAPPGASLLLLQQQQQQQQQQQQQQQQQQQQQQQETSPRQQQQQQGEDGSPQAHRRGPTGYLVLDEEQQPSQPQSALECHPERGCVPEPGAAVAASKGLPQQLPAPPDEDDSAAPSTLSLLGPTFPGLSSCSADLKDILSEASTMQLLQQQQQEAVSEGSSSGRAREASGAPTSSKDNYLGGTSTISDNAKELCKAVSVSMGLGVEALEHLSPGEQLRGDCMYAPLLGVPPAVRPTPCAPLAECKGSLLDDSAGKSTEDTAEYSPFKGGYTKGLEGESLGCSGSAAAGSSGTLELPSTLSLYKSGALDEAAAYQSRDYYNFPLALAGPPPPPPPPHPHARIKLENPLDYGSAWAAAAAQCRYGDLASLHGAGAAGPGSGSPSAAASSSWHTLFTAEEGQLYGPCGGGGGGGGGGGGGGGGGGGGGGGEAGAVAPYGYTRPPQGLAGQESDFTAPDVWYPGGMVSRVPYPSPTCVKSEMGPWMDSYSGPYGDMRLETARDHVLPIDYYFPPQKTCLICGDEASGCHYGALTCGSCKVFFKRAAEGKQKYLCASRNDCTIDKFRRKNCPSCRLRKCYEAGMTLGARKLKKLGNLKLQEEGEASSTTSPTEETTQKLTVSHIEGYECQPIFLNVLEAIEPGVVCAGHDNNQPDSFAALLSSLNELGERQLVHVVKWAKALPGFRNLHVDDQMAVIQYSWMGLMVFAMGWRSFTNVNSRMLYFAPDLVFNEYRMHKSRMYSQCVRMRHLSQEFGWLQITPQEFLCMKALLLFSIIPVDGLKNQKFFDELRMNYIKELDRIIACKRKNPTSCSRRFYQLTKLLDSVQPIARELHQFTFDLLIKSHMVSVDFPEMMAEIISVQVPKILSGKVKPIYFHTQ

AR E709Y = target: T2, AR E709Y (Homo sapiens, UniProt P10275, E710Y); assay: cell-based; details: IC50 (antagonistic activity)
T2 sequence (P10275 1-920 E710Y): T1 sequence (P10275 1-920) with E710Y

AR V715M = AR V715M (Homo sapiens, UniProt P10275, V716M); assay: cell-based; details: IC50 (antagonistic activity)
AR H874Y = AR H874Y (Homo sapiens, UniProt P10275, H875Y); assay: cell-based; details: IC50 (antagonistic activity)
AR T877A = AR T877A (Homo sapiens, UniProt P10275, T878A); assay: cell-based; details: IC50 (antagonistic activity)
[2] = tested on: AR binding to PSA gene regulatory elements; assay: Chromatin immunoprecipitation (ChIP) in VCaP cells; details: 6 h, 1 nM R1881 with 5 μM compound
Method: VCaP cells were grown in 10 cm plates to 80% confluence. One plate of cells was used per immunoprecipitation. The cells were maintained in DMEM-cFCS for 3 days prior to treatment. […] After cell lysis (5 mM PIPES pH 8, 85 mM KCl, 0.5 % Nonidet P40) and nuclei isolation using RIPA buffer, chromatin was sheared to 100-2000 base pair-long fragments using a S220 ultrasonicator (Covaris, Woburn, MA, USA).
Immunoprecipitations were performed using the IPstar device (Diagenode, Liège, Belgium) with 20 μL of magnetic Protein A bead suspension. […] The buffers used were: bead wash (10 mM Tris-HCl pH 8, 1 mM EDTA, 0.02 % Tween-20), wash 1 (20 mM Tris-HCl pH 8, 2 mM EDTA, 150 mM NaCl, 1 % Triton X-100, 0.1 % SDS), wash 2 (20 mM Tris-HCl pH 8, 2 mM EDTA, 500 mM NaCl, 1 % Triton X-100, 0.1 % SDS), wash 3 (10 mM Tris-HCl pH 8, 1 mM EDTA, 250 mM LiCl, 1 % Nonidet P40, 1 % sodium deoxycholate) and elute (0.1 M NaHCO3, 1 % SDS).
The samples were treated with RNaseA and Proteinase K, and were purified using the Qiagen PCR purification kit before analysis by qPCR.

[3] = tested on: AR wild-type and the mutants E709Y, V715M, W741C and H874Y; assay: Immunofluorescence of AR sub-cellular localization in transfected COS-7 cells; details: 4 h
Method: For staining, culture medium was removed and the cells were washed three times with PBS. […] The cells were then washed, stained with 300 nM DAPI in PBS for 5 min, and sealed with a coverslip. Cells were imaged on an LSM700 confocal laser scanning microscope (Zeiss, Göttingen, Germany), using a 25X objective. Quantification of COS-7 cells was performed on 25 cells in two replicates using ImageJ software.

Work on `CC(C)(O)COc1ccc(CN2C(=S)N(c3ccc(C#N)c(C(F)(F)F)c3)C(=O)C2(C)C)cn1` [BAY 1024767] yielded an efflux ratio at 2 h, 2 μM (Caco-2 permeation assay) of 0.61, a Papp A→B at 2 h, 2 μM (Caco-2 permeation assay; 2 μM, 2 h) of 18.3 ×10⁻⁶ cm/s and a clearance ([1]; iv, 0.5 mg/kg i.v., read-out: CLB (blood clearance) (converted)) of 1 mL/min/kg. For the same compound, the Vd ([1]; iv, 0.5 mg/kg i.v., read-out: VSS (volume of distribution)) was 0.61 L/kg, the bioavailability ([1]; oral, 1 mg/kg intragastral vs 0.5 mg/kg i.v., read-out: F (oral bioavailability)) was 99% and the IC50 (AR wild-type; R1881 0.1 nM) was 0.046 µM. The IC50 (AR wild-type; R1881 1 nM) was 0.26 µM, the IC50 (AR wild-type; R1881 10 nM) was 1.6 µM and the IC50 (AR E709Y; R1881 0.1 nM) was 0.03 µM. The IC50 (AR E709Y; R1881 1 nM) was 0.13 µM, the IC50 (AR E709Y; R1881 10 nM) was 0.61 µM and the IC50 (AR V715M; R1881 0.1 nM) was 0.052 µM. It also gave an IC50 (AR V715M; R1881 1 nM) of 0.24 µM, an IC50 (AR H874Y; R1881 0.1 nM) of 0.031 µM and an IC50 (AR H874Y; R1881 1 nM) of 0.16 µM. For the same compound, the IC50 (AR T877A; R1881 0.1 nM) was 0.32 µM, the IC50 (AR T877A; R1881 1 nM) was 1.1 µM and the “AR binding to the PSA enhancer” value [2] was “entirely prevented”. For the same compound, the “AR nuclear translocation in the presence of R1881” value ([3]; 1 nM R1881, 1 μM BAY 1024767) was “did not prevent nuclear translocation” and the “AR nuclear localization in the absence of R1881” value ([3]; 1 μM BAY 1024767 or 5 μM enzalutamide) was “promoted nuclear localization”.
